From patent US7041698B2, “Hepatitis C virus inhibitors” (Bristol-Myers Squibb Company, priority 2002, dated 2006)
Like-named read-outs stand apart in the source and are kept apart here.

Tests used:
[1] = molecular target: T1, HCV NS3/4A protease complex (UniProt P27958, C1454S/C1711G, species not given); assay: Recombinant HCV NS3/4A protease complex FRET peptide assay (strain not stated); format: biochemical; conditions: HCV NS3/4A protease enzyme assay, read-out: IC50 range
T1 construct: fused on or other part: Three-lysine solubilising tail at the C-terminus of NS4A
Excerpt: Recombinant HCV NS3/4A Protease Complex FRET Peptide Assay
The purpose of this in vitro assay was to measure the inhibition of HCV NS3 protease complexes, derived from the BMS, H77C or J416S strains, as described below, by compounds of the present invention. This assay provides an indication of how effective compounds of the present invention would be in inhibiting HCV proteolytic activity.
Serum from an HCV-infected patient was obtained from Dr. T. Wright, San Francisco Hospital. An engineered full-length cDNA (compliment deoxyribonucleic acid) template of the HCV genome (BMS strain) was constructed from DNA fragments obtained by reverse transcription-PCR (RT-PCR) of serum RNA (ribonucleic acid) and using primers selected on the basis of homology between other genotype 1a strains. From the determination of the entire genome sequence, a genotype 1a was assigned to the HCV isolate according to the classification of Simmonds et al. (See P Simmonds, K A Rose, S Graham, S W Chan, F McOmish, B C Dow, E A Follett, P L Yap and H Marsden, J. Clin. Microbiol., 31(6), 1493–1503 (1993)). […] The infectious clones, H77C (1a genotype) and J4L6S (1b genotype) were obtained from R. Purcell (NIH) and the sequences are published in Genbank (AAB67036, see Yanagi, M., Purcell, R. H., Emerson, S. U. and Bukh, J. Proc. Natl. Acad. Sci. U.S.A. 94(16),8738–8743 (1997); AF054247, see Yanagi, M., St Claire, M., Shapiro, M., Emerson, S. U., Purcell, R. H. and Bukh, J, Virology 244 (1), 161–172. (1998)).
The BMS, H77C and J4L6S strains were used for production of recombinant NS3/4A protease complexes. DNA encoding the recombinant HCV NS3/4A protease complex (amino acids 1027 to 1711) for these strains were manipulated as described by P. Gallinari et al. (see Gallinari P, Paolini C, Brennan D, Nardi C, Steinkuhler C, De Francesco R. Biochemistry. 38(17):5620–32, (1999)). Briefly, a three-lysine solubilizing tail was added at the 3′-end of the NS4A coding region. The cysteine in the P1 position of the NS4A-NS4B cleavage site (amino acid 1711) was changed to a glycine to avoid the proteolytic cleavage of the lysine tag. Furthermore, a cysteine to serine mutation was introduced by PCR at amino acid position 1454 to prevent the autolytic cleavage in the NS3 helicase domain. The variant DNA fragment was cloned in the pET21b bacterial expression vector (Novagen) and the NS3/4A complex was expressed in Escherichia. coli strain BL21 (DE3) (Invitrogen) following the protocol described by P. Gallinari et al. (see Gallinari P, Brennan D, Nardi C, Brunetti M, Tomei L, Steinkuhler C, De Francesco R., J. Virol. 72(8):6758–69 (1998)) with modifications. Briefly, NS3/4A expression was induced with 0.5 mM Isopropyl β-D-1-thiogalactopyranoside (IPTG) for 22 hr at 20° C. A typical fermentation (10L) yielded approximately 80 g of wet cell paste. The cells were resuspended in lysis buffer (10 mL/g) consisting of 25 mM N-(2-Hydroxyethyl)Piperazine-N′-(2-Ethane Sulfonic acid) (HEPES), pH7.5, 20% glycerol, 500 mM Sodium Chloride (NaCl), 0.5% Triton-X100, 1 ug/ml lysozyme, 5 mM Magnesium Chloride (MgCl2), lug/ml Dnasel, 5 mM β-Mercaptoethanol (βME), Protease inhibitor—Ethylenediamine Tetraacetic acid (EDTA) free (Roche), homogenized and incubated for 20 mins at 4° C. The homogenate was sonicated and clarified by ultra-centrifugation at 235000 g for 1 hr at 4° C. Imidazole was added to the supernatant to a final concentration of 15 mM and the pH adjusted to 8.0. The crude protein extract was loaded on a Nickel-Nitrilotriacetic acid (Ni-NTA) column pre-equilibrated with buffer B (25 mM HEPES, pH 8.0, 20% glycerol, 500 mM NaCl, 0.5% Triton-X100, 15 mM imidazole, 5 mM βME). The sample was loaded at a flow rate of 1 mL/min. The column was washed with 15 column volumes of buffer C (same as buffer B except with 0.2% Triton-X100). The protein was eluted with 5 column volumes of buffer D (same as buffer C except with 200 mM Imidazole). […]

[2] = tested on: HCV replicon in Huh7 cells; assay: HCV replicon cell-based assay; set-up: species or system HCV strain 1B; conditions: HCV replicon, 4 days, read-out: EC50 range
Excerpt: HCV Replicon Cell-based Assay
An HCV replicon whole cell system was established as described by Lohmann V, Komer F, Koch J, Herian U, Theilmann L, Bartenschlager R., Science 285(5424):110–3 (1999). This system enabled us to evaluate the effects of our HCV Protease compounds on HCV RNA replication. Briefly, using the HCV strain 1B sequence described in the Lohmann paper (Assession number:AJ238799), an HCV cDNA was generated encoding the 5′ internal ribosome entry site (IRES), the neomycin resistance gene, the EMCV (encephalomyocarditis viurs)-IRES and the HCV nonstructural proteins, NS3-NS5B, and 3′ non-translated region (NTR). In vitro transcripts of the cDNA were transfected into the human hepatoma cell line, Huh7. […] Resulting cell lines were characterized for positive and negative strand RNA production and protein production over time.
Huh7 cells, constitutively expressing the HCV replicon, were grown in Dulbecco's Modified Eagle Media (DMEM) containing 10% Fetal calf serum (FCS) and 1 mg/ml G418 (Gibco-BRL). Cells were seeded the night before (1.5×10^4 cells/well) in 96-well tissue-culture sterile plates. Compound and no compound controls were prepared in DMEM containing 4% FCS, 1:100 Penicillin/Streptomysin, 1:100 L-glutamine and 5% DMSO in the dilution plate (0.5% DMSO final concentration in the assay). Compound/DMSO mixes were added to the cells and incubated for 4 days at 37° C. After 4 days, plates were rinsed thoroughly with Phosphate-Buffered Saline (PBS) (3 times 150 μl). The cells were lysed with 25 μl of a lysis assay reagent containing the FRET peptide (RET S1, as described for the in vitro enzyme assay). The lysis assay reagent was made from 5× cell Luciferase cell culture lysis reagent (Promega #E153A) diluted to 1× with distilled water, NaCl added to 150 mM final, the FRET peptide diluted to 10 μM final from a 2 mM stock in 100% DMSO. The plate was then placed into the Cytofluor 4000 instrument which had been set to 340 nm excitation/490 emission, automatic mode for 21 cycles and the plate read in a kinetic mode. EC50 determinations were carried out as described for the IC50 determinations.
As a secondary assay, EC50 determinations from the replicon FRET assay were confirmed in a quantitative RNA assay. Cells were lyzed using the Rneasy kit (Qiagen). Purified total RNA was normalized using RiboGreen (Jones L J, Yue S T, Cheung C Y, Singer V L, Anal. Chem., 265(2):368–74 (1998)) and relative quantitation of HCV RNA expression assessed using the Taqman procedure (Kolykhalov A A, Mihalik K, Feinstone S M, Rice C M, Journal of Virology 74, 2046–2051 (2000)) and the Platinum Quantitative RT-PCR Thermoscript One-Step kit (Invitrogen cat # 11731-015). Briefly, RNA made to a volume of 5 μl (<1 ng) was added to a 20 μl Ready-Mix containing the following: 1.25× Thermoscript reaction mix (containing Magnesium Sulfate and 2-deoxynucleoside 5′-triphosphates (dNTPs)), 3 mM dNTPs, 200 nM forward primer (sequence: 5′-[…]-3′), 600 nM reverse primer (5′-[…]-3′), 100 nM probe (5′-6-FAM-[…]-BHQ-1-3′)(FAM: Fluorescein-aminohexyl amidite; BHQ: Black Hole Quencher), 1 μM Rbx reference dye (Invitrogen cat # 12223-012) and Thermoscript Plus Platinum Taq polymerase mixture. All primers were designed with ABI Prism 7700 software and obtained from Biosearch Technologies, Novato, Calif. Samples containing known concentrations of HCV RNA transcript were run as standards. Using the following cycling protocol (50° C., 30 min; 95° C., 5 min; 40 cycles of 95° C., 15 sec, 60° C., 1 min), HCV RNA expression was quantitated as described in the Perkin Elmer manual using the ABI Prism 7700 Sequence Detector.
The luciferase reporter assay was also used to confirm compound potency in the replicon. Utilization of a replicon luciferase reporter assay was first described by Krieger et al (Krieger N, Lohmann V, and Bartenschlager R, J. Virol. 75(10):4614–4624 (2001)). […]

| Structure (SMILES) | IC50 [1] | EC50 ([2]; Hepatitis C virus, Huh-7, 96 h) | EC50 [2] |
| --- | --- | --- | --- |
| C=CCN(CC=C)C(=O)O[C@@H]1C[C@@H](C(=O)N[C@]2(C(=O)NS(=O)(=O)C3CC3)CC2C=C)N(C(=O)[C@@H](NC(=O)OC(C)(C)C)C(C)(C)C)C1 (stereo partly drawn) [Compound 5, BocNH-P3(t-BuGly)-P2(Hyp(O—CO(N,N-diallyl)))-P1(1R,2S VinylAcca)—CONHSO2Cyclopropane] | 100 to 1000 nM | 1000 to 10000 nM | – |
| C=CC1C[C@]1(NC(=O)[C@@H]1C[C@@H](OC(=O)Nc2ccc(OC)cc2[N+](=O)[O-])CN1C(=O)[C@@H](NC(=O)OC(C)(C)C)C(C)(C)C)C(=O)NS(=O)(=O)C1CC1 (stereo partly drawn) [Compound 41, BocNH-P3(t-BuGly)-P2(Hyp(O—CO(NH—(4-Methoxy-2-nitro-phenyl))))-P1(1R,2S VinylAcca)—CONHSO2Cyclopropane] | < 100 nM | 1000 to 10000 nM | – |
| C=CC1C[C@]1(NC(=O)[C@@H]1C[C@@H](OC(=O)Nc2cc(OC)ccc2-n2cccn2)CN1C(=O)[C@@H](NC(=O)OC(C)(C)C)C(C)(C)C)C(=O)NS(=O)(=O)C1CC1 (stereo partly drawn) [Compound 95, BocNH-P3(t-BuGly)-P2(Hyp(O—CO(NH—(5-Methoxy-2-pyrazol-1-yl-phenyl))))-P1(1R,2S VinylAcca)—CONHSO2Cyclopropane] | < 100 nM | 100 to 1000 nM | – |
| C=CC1C[C@]1(NC(=O)[C@@H]1C[C@@H](OC(=O)Nc2ccccc2CC)CN1C(=O)[C@@H](NC(=O)OC(C)(C)C)C(C)(C)C)C(=O)NS(=O)(=O)C1CC1 (stereo partly drawn) [Compound 59, BocNH-P3(t-BuGly)-P2(Hyp(O—CO(NH—(2-ethyl-phenyl))))-P1(1R,2S VinylAcca)—CONHSO2Cyclopropane] | 100 to 1000 nM | 1000 to 10000 nM | – |
| C=CC1C[C@]1(NC(=O)[C@@H]1C[C@@H](OC(=O)Nc2ccccc2/C(=N/O)c2ccccc2)CN1C(=O)[C@@H](NC(=O)OC(C)(C)C)C(C)(C)C)C(=O)NS(=O)(=O)C1CC1 (single isomer, unassigned) [Compound 77b] | 100 to 1000 nM | – | > 10000 nM |
| C=CC1C[C@]1(NC(=O)[C@@H]1C[C@@H](OC(=O)Nc2ccccc2C(=O)OC)CN1C(=O)[C@@H](NC(=O)OC(C)(C)C)C(C)(C)C)C(=O)NS(=O)(=O)C1CC1 (stereo partly drawn) [Compound 30, BocNH-P3(t-BuGly)-P2(Hyp(O—CO(NH—(2-benzoic acid methyl ester))))-P1(1R,2S VinylAcca)—CONHSO2Cyclopropane] | < 100 nM | < 100 nM | – |
| C=CC1C[C@]1(NC(=O)[C@@H]1C[C@@H](OC(=O)Nc2ccccc2-n2nc3cc(OC)c(OC)cc3n2)CN1C(=O)[C@@H](NC(=O)OC(C)(C)C)C(C)(C)C)C(=O)NS(=O)(=O)C1CC1 (stereo partly drawn) [Compound 87, BocNH-P3(t-BuGly)-P2(Hyp(O—CO(NH—(2-(5,6-Dimethoxy-benzotriazol-2-yl)-phenyl))))-P1(1R,2S VinylAcca)—CONHSO2Cyclopropane] | < 100 nM | < 100 nM | – |
| C=CC1C[C@]1(NC(=O)[C@@H]1C[C@@H](OC(=O)Nc2cc(C(F)(F)F)ccc2N2CCCC2)CN1C(=O)[C@@H](NC(=O)OC(C)(C)C)C(C)(C)C)C(=O)NS(=O)(=O)C1CC1 (stereo partly drawn) [Compound 84, BocNH-P3(t-BuGly)-P2(Hyp(O—CO(NH—(2-Pyrrolidin-1-yl-5-trifluoromethyl-phenyl))))-P1(1R,2S VinylAcca)—CONHSO2Cyclopropane] | < 100 nM | 100 to 1000 nM | – |
| C=CC1C[C@]1(NC(=O)[C@@H]1C[C@@H](OC(=O)N2CCCCC2)CN1C(=O)[C@@H](NC(=O)OC(C)(C)C)C(C)(C)C)C(=O)NS(=O)(=O)C1CC1 (stereo partly drawn) [Compound 14, BocNH-P3(t-BuGly)-P2(Hyp(O—CO(N,N-(piperdino))))-P1(1R,2S VinylAcca)—CONHSO2Cyclopropane] | 100 to 1000 nM | 1000 to 10000 nM | – |
| C=CC1C[C@]1(NC(=O)[C@@H]1C[C@@H](OC(=O)N(C)c2ccccc2)CN1C(=O)[C@@H](NC(=O)OC(C)(C)C)C(C)(C)C)C(=O)NS(=O)(=O)C1CC1 (stereo partly drawn) [Compound 1, BocNH-P3(t-BuGly)-P2(Hyp(O—CO(N-methyl,N-phenyl)))-P1(1R,2S VinylAcca)—CONHSO2Cyclopropane] | 100 to 1000 nM | 1000 to 10000 nM | – |
